Here are results for 21 compounds from patent US7094869B2, “Low molecular weight peptidomimetic growth hormone secretagogues” (Genentech, Inc., priority 1994, dated 2006).

pEC50: −log10 of the molar value. Like-named read-outs stand apart in the source and are kept apart here. Non-standard residues stand in square brackets, D forms with d. Residues, ends and D or L forms follow the SMILES beside them. ξ: configuration not given here. dNMe2Nal = CN[C@H](Cc1ccc2ccccc2c1)C(=O)O; 2Nal = N[C@@H](Cc1ccc2ccccc2c1)C(=O)O; d2Nal = N[C@H](Cc1ccc2ccccc2c1)C(=O)O; ξNMe2Nal = CNC(Cc1ccc2ccccc2c1)C(=O)O; hPhe = N[C@@H](CCc1ccccc1)C(=O)O; Ac6c = NC1(C(=O)O)CCCCC1; Inp = O=C(O)C1CCNCC1; ξK = NCCCCC(N)C(=O)O; Ahp = NCCCCCCC(=O)O; Ava = NCCCCC(=O)O

For assay [1], the target named is rat pituitary cells (Rattus norvegicus, UniProt O08725). To be noted: read-out: PIT Cell EC50, GH release, 15 min incubation. On the procedure: Pituitaries from ten rats were removed, the posterior pituitary discarded and the anterior pituitary placed in Hanks' Balanced Salt Solution (HBSS: without calcium chloride, w/o magnesium chloride, w/o magnesium sulfate; Gibco) containing 20 mM HEPES (Gibco) and 100 U/ml penicillin streptomycin (PS: JRH Biosciences). Under sterile conditions, pituitaries were rinsed twice then minced into small fragments with a razor blade. […] After the incubation, fragments were triturated to yield small clumps and single cells. The cells were centrifuged 1000× g for 5 min, resuspended, counted and plated at a final cell concentration of 100,000 cells/ml. Incubation media was DME low glucose media w/NaHCO3 (Gibco) containing 20 mM hepes, 100 U/ml PS and 10% FBS (Hyclone A-111-L). Cells were plated at 0.5 ml per well in 48 well plates (Falcon) and incubated at 37° C. in 5% C02 for three days. For challenges to determine release of other pituitary hormones cells were plated at 200,000 cells per ml with 2 ml per well of a Swell plate (Corning). Challenge: A (inip)bbFK-NH2 stock (or other GHRP) concentration of 1 mM was made in DMSO and diluted with warmed media approximately 30 min prior to use. The highest concentration of DMSO in media was 0.1%. Stock solutions (1 mM) of rat GHRH, somatostatin (Sigma) and GHRP antagonist HwkWfK were made fresh in media and diluted appropriately. The media used in all challenges and washing steps was DME low glucose with 20 mM Hepes, 100 U/ml PS, 10% FBS. Media was warmed to 37° C. and gassed by placing it into the incubator prior to challenge. On day three, the media was discarded and fresh media (approximately 1 ml) added for the first of three washes. After the last wash, the plate was placed back in the incubator for a 15 min pre-incubation. Then cells were washed 2× (with warmed and gassed media) and fresh 0.5 ml media were added for the second 15 min. pre-incubation. After the second pre-incubation cells were washed 2× as above and 0.5 ml of control and test solutions were added for a final 15 min incubation. After this incubation, the media were removed for subsequent GH ELISA. GH ELISA: A two-site ELISA was used to determine rat GH concentration in the media. […] After blocking and washing, standard (rat GH reference preparation: Parlow) and challenge media is diluted 1:20 prior to GH assay were added for a 1 hr room temperature incubation. STATISTICS: The mean for each group was determined and analyzed by one-way analysis of variance with a post-hoc Student-Newman-Keuls. Significance is defined as P<0.05. The EC50 was calculated using a 4-parameter curve-fit program (Kaleidagraph). Three to four independent EC50s were used to derive the mean and SEM. RIA of pituitary hormones: LH, FSH, TSH, and Prolactin were determined with commercially available kits from Amersham, and ACTH levels were determined by a RIA kit from ICN. CALCIUM FLUX EXPERIMENT: Pituitary cells were plated on fibronectin (Collaborative Research) coated two-chambered slide wells (Nunc). After four days in monolayer culture cells were rinsed three times with HBSS (Gibco) in 1% BSA and 15 mM HEPES and then incubated for 30 min at 37° C. with 5 μM Indo-1 AM (Molecular Probes, Eugene) in HBSS also containing 1% pluronic F127 (Molecular Probes). The cells were rinsed once and fresh media added for RT incubation. […] C^++ flux was imaged with a Meridian ACAS 570 using stage scanning at 21 second intervals.
Sequence of rat pituitary cells (O08725 whole entry, the tested form may be a part): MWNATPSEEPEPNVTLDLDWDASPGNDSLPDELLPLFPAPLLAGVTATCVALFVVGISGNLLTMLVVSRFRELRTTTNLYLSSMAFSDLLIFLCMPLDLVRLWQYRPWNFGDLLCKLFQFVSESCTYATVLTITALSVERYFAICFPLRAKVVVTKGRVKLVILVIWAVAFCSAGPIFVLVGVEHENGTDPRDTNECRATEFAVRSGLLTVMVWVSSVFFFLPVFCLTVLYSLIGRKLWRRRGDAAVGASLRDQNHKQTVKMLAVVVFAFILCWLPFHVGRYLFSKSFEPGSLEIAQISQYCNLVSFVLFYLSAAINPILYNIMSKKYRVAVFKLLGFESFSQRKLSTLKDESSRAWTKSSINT

In assay [2] the test system is growth hormone secretion. As to the kind of experiment: GHRP induced growth hormone secretion, intravenous administration (Rat IV). As to conditions: iv injection, serum GH 10 min after injection. The class given is in vivo. As to the method: Immature weanling female Sprague Dawley rats were purchased from Charles River Labs (Portage, […].) and group housed with water and food available ad libitum. When the rats were 24-30 days old (weighing 50-90 g) they were anesthetized with pentobarbitone (4 mg in 0.5 ml, approximately 60 mg/kg) given by intraperitoneal injection. The rats were then placed briefly on a heated pad, to distend their tail veins, and given an intravenous tail vein injection of the peptides 20 minutes after receiving the anesthetic. The intravenous injection was of 0.1 ml using a 1 ml syringe. The injections contained graded doses of peptides or the vehicle (vehicle for all peptides given intravenously was a buffer of 20 mM sodium acetate, 45 g/l mannitol, pH 5.0). Ten minutes after the intravenous injection blood was taken by cardiac puncture, using a 3 ml syringe, and the rats were then sacrificed.
The blood was then clotted on ice, centrifuged, serum decanted and frozen for subsequent analysis using the rat GH ELISA described elsewhere in the application. For the rat GH ELISA the serum was diluted 1:50 or 1:250, depending on the expected serum GH concentrations achieved, and assayed in duplicate.

Setting [3] is: Table III, formula IV compounds.
Setting [4] is: Table IV, formula III compounds.

One may read the pEC50 as the negative decadic logarithm of the EC50, by convention in mol/L. For the compound `NCCCCC(=O)N[C@H](Cc1ccc2ccccc2c1)C(=O)N[C@H](Cc1ccc2ccccc2c1)C(=O)N[C@@H](Cc1ccccc1)C(=O)N[C@@H](CCCCN)C(N)=O` [(Ava) b b F K amide] (H-[Ava][d2Nal][d2Nal]FK-NH2), the negative logarithm of the EC50 (pEC50) in assay [1] (setting [3]) is 8.55. Besides, the “RAT IV ED50” value in assay [2] (Table III) came to 2.6 µg.
Take `NCCCCC(=O)N[C@H](Cc1ccc2ccccc2c1)C(=O)N[C@H](Cc1ccc2ccccc2c1)C(=O)N[C@@H](Cc1ccccc1)C(=O)N[C@@H](CC(N)=O)C(N)=O` [(Ava) b b F N amide] (H-[Ava][d2Nal][d2Nal]FN-NH2): the pEC50 in assay [1] (setting [3]) is 8.11. The “RAT IV ED50” value in assay [2] (Table III) was determined as 200 µg.
The matching figures for `NCCCCC(=O)N[C@H](Cc1ccc2ccccc2c1)C(=O)N[C@H](Cc1ccc2ccccc2c1)C(=O)N[C@@H](Cc1ccccc1)C(=O)N1CCC[C@H]1C(N)=O` [(Ava) b b F P amide] (H-[Ava][d2Nal][d2Nal]FP-NH2): 7.29 and 50 µg.
In the case of `NCCCCC(=O)N[C@H](Cc1ccc2ccccc2c1)C(=O)N[C@H](Cc1ccc2ccccc2c1)C(=O)N[C@@H](Cc1ccccc1)C(N)=O` [(Ava) b b F amide] (H-[Ava][d2Nal][d2Nal]F-NH2), in assay [1] (setting [4]), the negative-log EC50 (pEC50) is 7.77. Besides, in assay [2] (Table IV), the “RAT IV ED50” value worked out at 100 µg.
As to `NCCCCC(=O)N[C@H](Cc1ccc2ccccc2c1)C(=O)N[C@H](Cc1ccc2ccccc2c1)C(=O)N[C@@H](Cc1ccccc1)C(=O)N[C@H](CCCCN)C(N)=O` [(Ava) b b F k amide] (H-[Ava][d2Nal][d2Nal]F[dK]-NH2), the negative logarithm of the EC50 (pEC50) in assay [1] (setting [3]) is 7.77. In addition, the “RAT IV ED50” value in assay [2] (Table III) worked out at 33.3 µg.
For `NCCCCC(=O)N[C@H](Cc1ccc2ccccc2c1)C(=O)N[C@H](Cc1ccc2ccccc2c1)C(=O)N[C@@H](Cc1ccccc1)C(=O)N[C@H](CC(N)=O)C(N)=O` [(Ava) b b F n amide] (H-[Ava][d2Nal][d2Nal]F[dN]-NH2), in assay [1] (setting [3]), the pEC50 is 8.00. Besides, the “RAT IV ED50” value in assay [2] (Table III) stood at 12.5 µg.
With `NCCCCC(=O)N[C@H](Cc1ccc2ccccc2c1)C(=O)N[C@H](Cc1ccc2ccccc2c1)C(=O)N[C@@H](CCc1ccccc1)C(=O)N[C@@H](CCCCN)C(N)=O` [(Ava) b b hF K amide] (H-[Ava][d2Nal][d2Nal][hPhe]K-NH2), the pEC50 in assay [1] (setting [3]) was 8.30. For the same compound, in assay [2] (Table III), the “RAT IV ED50” value was 50 µg.
Turning to `CN(C(=O)[C@@H](Cc1ccc2ccccc2c1)NC(=O)CCCCN)[C@H](Cc1ccc2ccccc2c1)C(=O)N[C@@H](Cc1ccccc1)C(=O)N[C@@H](CCCCN)C(N)=O` [(Ava) b nmb F K amide] (H-[Ava][d2Nal][dNMe2Nal]FK-NH2), the negative logarithm of the EC50 (pEC50) in assay [1] (setting [3]) is 8.42. Also, the “RAT IV ED50” value in assay [2] (Table III) is 100 µg.
Take `NCCCCC(=O)N[C@H](Cc1ccc2ccccc2c1)C(=O)N[C@H](Cc1c[nH]c2ccccc12)C(=O)N[C@@H](Cc1ccccc1)C(=O)N[C@@H](CCCCN)C(N)=O` [(Ava) b w F K amide] (H-[Ava][d2Nal][dW]FK-NH2): the pEC50 in assay [1] (setting [3]) was 8.34. Moreover, in assay [2] (Table III), the “RAT IV ED50” value worked out at 11.8 µg.
In the case of `NCCCCNC(=O)[C@H](Cc1ccc2ccccc2c1)NC(=O)[C@H](Cc1ccc2ccccc2c1)NC(=O)[C@@H](Cc1ccccc1)NC(=O)CCCCN` [(Ava) f B B bam, (5-aminovaleryl)-DPhe-βNal-βNal-[N-(4-aminobutyl)] amide], the negative-log EC50 (pEC50) in assay [1] (Table VI, retroinverso compounds of formula V) is 7.66. The “RAT IV ED50” value in assay [2] (Table VI) worked out at 100 µg.
With `NCCCCC(=O)N[C@H](Cc1ccccc1)C(=O)N[C@H](Cc1c[nH]c2ccccc12)C(=O)N[C@@H](Cc1ccccc1)C(N)=O` [(Ava) f w F amide] (H-[Ava][dF][dW]F-NH2), in assay [1] (setting [4]), the pEC50 is under 6.52. Moreover, the “RAT IV ED50” value in assay [2] (Table IV) is 1000 µg.
Turning to `CN(C(=O)CCCCN)C(Cc1ccc2ccccc2c1)C(=O)N[C@H](Cc1ccc2ccccc2c1)C(=O)N[C@@H](Cc1ccccc1)C(=O)NC(CCCCN)C(N)=O` (stereo partly drawn) [(Ava) nmb b F K amide, (5-aminovaleryl)-(N-Me-DβNal)-DβNal-Phe-Lys-amide] (H-[Ava][ξNMe2Nal][d2Nal]F[ξK]-NH2), in assay [1] (setting [3]), the pEC50 is 8.74. Further, the “RAT IV ED50” value in assay [2] (Table III) was 0.4 µg.
`CN(C(=O)CCCCN)[C@H](Cc1ccc2ccccc2c1)C(=O)N[C@H](Cc1ccc2ccccc2c1)C(=O)N[C@@H](Cc1ccccc1)C(N)=O` [(Ava) nmb b F amide] (H-[Ava][dNMe2Nal][d2Nal]F-NH2): the negative-log EC50 (pEC50) in assay [1] (setting [4]) was 8.80. Besides, in assay [2] (Table IV), the “RAT IV ED50” value was found to be 20 µg.
Regarding `NCCCCC(=O)N[C@H](Cc1c[nH]c2ccccc12)C(=O)N[C@H](Cc1c[nH]c2ccccc12)C(=O)N[C@@H](Cc1ccccc1)C(=O)N[C@@H](CCCCN)C(N)=O` [(Ava) w w F K amide] (H-[Ava][dW][dW]FK-NH2), the negative-log EC50 (pEC50) in assay [1] (setting [3]) was 7.89. Moreover, in assay [2] (Table III), the “RAT IV ED50” value worked out at 5 µg.
The corresponding values for `NCCCCCCC(=O)N[C@H](Cc1ccc2ccccc2c1)C(=O)N[C@H](Cc1ccc2ccccc2c1)C(=O)N[C@@H](Cc1ccccc1)C(=O)N[C@@H](CCCCN)C(N)=O` [(ahp) b b F K amide] (H-[Ahp][d2Nal][d2Nal]FK-NH2) are 7.46 and 100 µg.
For the compound `COC(=O)[C@@H](Cc1ccc2ccccc2c1)NC(=O)[C@@H](Cc1ccc2ccccc2c1)NC(=O)C1CCNCC1` [(imp) b b Me ester] (H-[Inp]-[d2Nal]-[d2Nal]-OMe), in assay [1] (Table V, formula II compounds), the negative logarithm of the EC50 (pEC50) is 8.30. Moreover, in assay [2] (Table V), the “RAT IV ED50” value was 100 µg.
The corresponding values for `NC[C@H](Cc1ccc2ccccc2c1)NC(=O)[C@@H](Cc1ccc2ccccc2c1)NC(=O)C1CCNCC1` [(inip) b Bmn] are 7.44 and 20 µg.
Turning to `NC(=O)C1(NC(=O)[C@@H](Cc2ccc3ccccc3c2)NC(=O)[C@@H](Cc2ccc3ccccc3c2)NC(=O)C2CCNCC2)CCCCC1` [(inip) b b Abx amide] (H-[Inp][d2Nal][d2Nal][Ac6c]-NH2), the pEC50 in assay [1] (setting [4]) is 7.89. In addition, the “RAT IV ED50” value in assay [2] (Table IV) turned out to be 100 µg.
In the case of `NC(=O)[C@H](Cc1ccc2ccccc2c1)NC(=O)[C@@H](Cc1ccc2ccccc2c1)NC(=O)[C@@H](Cc1ccc2ccccc2c1)NC(=O)C1CCNCC1` [(inip) b b B amide] (H-[Inp][d2Nal][d2Nal][2Nal]-NH2), the pEC50 in assay [1] (setting [4]) was 10.00. In addition, the “RAT IV ED50” value in assay [2] (Table IV) worked out at 50 µg.
As to `NCCCC[C@H](NC(=O)[C@H](Cc1ccccc1)NC(=O)[C@@H](Cc1ccc2ccccc2c1)NC(=O)[C@@H](Cc1ccc2ccccc2c1)NC(=O)C1CCNCC1)C(=O)N[C@@H](Cc1ccc(O)cc1)C(N)=O` [(inip) b b F K Y amide] (H-[Inp][d2Nal][d2Nal]FKY-NH2), the negative logarithm of the EC50 (pEC50) in assay [1] (setting [3]) was 9.37. Also, the “RAT IV ED50” value in assay [2] (Table III) worked out at 1 µg.
Take `COC(=O)[C@H](Cc1ccccc1)NC(=O)[C@@H](Cc1ccc2ccccc2c1)NC(=O)[C@@H](Cc1ccc2ccccc2c1)NC(=O)C1CCNCC1` [(inip) b b F Me ester] (H-[Inp][d2Nal][d2Nal]F-OMe): the pEC50 in assay [1] (setting [4]) is 8.55. Moreover, the “RAT IV ED50” value in assay [2] (Table IV) stood at 2 µg.
